# Source: US8741897B2, “Glucocorticoid mimetics, methods of making them, pharmaceutical compositions and uses thereof” (Boehringer Ingelheim Pharmaceuticals Inc., priority 2003, dated 2014)
# System: glucocorticoid receptor function
# Test: one or more of the above assays (GR binding and glucocorticoid receptor cell assays: aromatase, IL-6, TAT, MMTV-Luc, IL-8, ICAM-Luc)
# Assay type: cell-based
# Conditions: assay not specified per compound
row,Compound,activity as agonists of the glucocorticoid receptor function in one or more of the above assays
1,"Cc1ccc(F)cc1C(C)(C)CC(O)(Cc1cc2nc(CN3CCOCC3)ccc2[nH]1)C(F)(F)F (stereo not shown) [1,1,1-Trifluoro-4-(5-fluoro-2-methylphenyl)-4-methyl-2-(5-morpholin-4-ylmethyl-1H-pyrrolo[3,2-b]pyridin-2-ylmethyl)pentan-2-ol]",potent agonists
2,"Cc1cc2[nH]c(CC(O)(CC(C)(C)c3cc(Cl)cc4c3OCC4)C(F)F)cc2cn1 (stereo not shown) [4-(5-Chloro-2,3-dihydrobenzofuran-7-yl)-1,1-difluoro-4-methyl-2-(6-methyl-1H-pyrrolo[3,2-c]pyridin-2-ylmethyl)pentan-2-ol]",agonists
3,"COc1ccc(-c2ccsc2)cc1C(C)(C)CC(O)(Cc1cc2c(C)nccc2[nH]1)C(F)(F)F (stereo not shown) [1,1,1-Trifluoro-4-(2-methoxy-5-thiophen-3-ylphenyl)-4-methyl-2-(4-methyl-1H-pyrrolo[3,2-c]pyridin-2-ylmethyl)pentan-2-ol]",potent agonists
4,"CC(C)(CC(O)(Cc1cc2ccncc2[nH]1)C(F)(F)F)c1cc(-c2ccccc2)ccc1O (stereo not shown) [3-[4,4,4-Trifluoro-3-hydroxy-1,1-dimethyl-3-(1H-pyrrolo[2,3-c]pyridin-2-ylmethyl)butyl]biphenyl-4-ol]",potent agonists
5,"CC(C)(CC(O)(Cc1cc2cc(-c3ccccc3)ncc2[nH]1)C(F)(F)F)c1cccc(CN2CCOCC2)c1 (stereo not shown) [1,1,1-Trifluoro-4-methyl-4-(3-morpholin-4-ylmethylphenyl)-2-(5-phenyl-1H-pyrrolo[2,3-c]pyridin-2-ylmethyl)pentan-2-ol]",potent agonists
6,"CC(C)(CC(O)(Cc1[nH]c2ccccc2c1Br)C(F)(F)F)c1cccc(F)c1 (stereo not shown) [2-(3-Bromo-1H-indol-2-ylmethyl)-1,1,1-trifluoro-4-(3-fluorophenyl)-4-methylpentan-2-ol]",potent agonists
7,"CC(C)(CC(O)(Cc1cc2cc(-c3ccccc3)nnc2[nH]1)C(F)(F)F)c1ccccc1 (stereo not shown) [1,1,1-Trifluoro-4-methyl-4-phenyl-2-(3-phenyl-7H-pyrrolo[2,3-c]pyridazin-6-ylmethyl)pentan-2-ol]",potent agonists
8,"Cc1c(CC(O)(CC(C)(C)c2cc(-c3cccnc3)ccc2O)C(F)(F)F)[nH]c2cnccc12 (stereo not shown) [4-Pyridin-3-yl-2-[4,4,4-trifluoro-3-hydroxy-1,1-dimethyl-3-(3-methyl-1H-pyrrolo[2,3-c]pyridin-2-ylmethyl)butyl]phenol]",potent agonists
9,"CC(C)(CC(O)(Cc1cc2cnccc2[nH]1)C(F)(F)F)c1cccc(-c2cccnc2)c1 (stereo not shown) [1,1,1-Trifluoro-4-methyl-4-(3-pyridin-3-ylphenyl)-2-(1H-pyrrolo[3,2-c]pyridin-2-ylmethyl)pentan-2-ol]",potent agonists
10,"CC(C)(CC(O)(Cc1cc2cc(Oc3ccccc3)ncc2[nH]1)C(F)(F)F)c1cc(-c2cccnc2)ccc1O (stereo not shown) [4-Pyridin-3-yl-2-[4,4,4-trifluoro-3-hydroxy-1,1-dimethyl-3-(5-phenoxy-1H-pyrrolo[2,3-c]pyridin-2-ylmethyl)butyl]phenol]",potent agonists
11,"CC(C)(CC(O)(Cn1ccc2ncccc21)C(F)(F)F)c1cc(S(C)(=O)=O)cc2c1OCC2 (stereo not shown) [1,1,1-Trifluoro-4-(5-methanesulfonyl-2,3-dihydrobenzofuran-7-yl)-4-methyl-2-pyrrolo[3,2-b]pyridin-1-ylmethylpentan-2-ol]",potent agonists
12,"CC(C)(CC(O)(Cc1cc2cc(Br)ccc2[nH]1)C(F)(F)F)c1cc(Cl)cc2c1OCC2 (stereo not shown) [2-(5-Bromo-1H-indol-2-ylmethyl)-4-(5-chloro-2,3-dihydrobenzofuran-7-yl)-1,1,1-trifluoro-4-methylpentan-2-ol]",potent agonists
13,"COc1ccc(-c2cncnc2)cc1C(C)(C)CC(O)(Cc1cc2cc(Cl)ncc2[nH]1)C(F)(F)F (stereo not shown) [2-(5-Chloro-1H-pyrrolo[2,3-c]pyridin-2-ylmethyl)-1,1,1-trifluoro-4-(2-methoxy-5-pyrimidin-5-ylphenyl)-4-methylpentan-2-ol]",potent agonists
14,"CC(C)(CC(O)(Cc1cc2ncncc2[nH]1)C(F)(F)F)c1cc(F)cc2c1OCC2 (stereo not shown) [1,1,1-Trifluoro-4-(5-fluoro-2,3-dihydrobenzofuran-7-yl)-4-methyl-2-(5H-pyrrolo[3,2-d]pyrimidin-6-ylmethyl)pentan-2-ol]",potent agonists
15,"CC(C)(CC(O)(Cc1cc2cc(-c3cccc(C#N)c3)ccc2[nH]1)C(F)(F)F)c1cc(F)cc2c1OCC2 (stereo not shown) [3-{2-[4-(5-Fluoro-2,3-dihydrobenzofuran-7-yl)-2-hydroxy-4-methyl-2-trifluoromethylpentyl]-1H-indol-5-yl}benzonitrile]",potent agonists
16,"CC(C)(CC(O)(Cc1cc2nc(CN)ccc2[nH]1)C(F)(F)F)c1cc(Cl)cc2c1OCC2 (stereo not shown) [2-(5-Aminomethyl-1H-pyrrolo[3,2-b]pyridin-2-ylmethyl)-4-(5-chloro-2,3-dihydrobenzofuran-7-yl)-1,1,1-trifluoro-4-methylpentan-2-ol]",potent agonists
17,"CC(C)(CC(O)(Cc1cc2cc(N3CCOCC3)ncc2[nH]1)C(F)(F)F)c1cccc(-c2cncnc2)c1 (stereo not shown) [1,1,1-Trifluoro-4-methyl-2-(5-morpholin-4-yl-1H-pyrrolo[2,3-c]pyridin-2-ylmethyl)-4-(3-pyrimidin-5-ylphenyl)pentan-2-ol]",potent agonists
18,"CC(C)(CC(O)(Cc1cc2nc(CN3CCOCC3)ccc2[nH]1)C(F)(F)F)c1cc(Cl)cc2c1OCC2 (stereo not shown) [4-(5-Chloro-2,3-dihydrobenzofuran-7-yl)-1,1,1-trifluoro-4-methyl-2-(5-morpholin-4-ylmethyl-1H-pyrrolo[3,2-b]pyridin-2-ylmethyl)pentan-2-ol]",potent agonists
19,"CC(C)(CC(O)(Cc1cc2cnccc2[nH]1)C(F)(F)F)c1cc(-c2cccnc2)ccc1O (stereo not shown) [4-Pyridin-3-yl-2-[4,4,4-trifluoro-3-hydroxy-1,1-dimethyl-3-(1H-pyrrolo[3,2-c]pyridin-2-ylmethyl)butyl]phenol]",potent agonists
20,"CN(C)c1ccc(-c2ccc3[nH]c(CC(O)(CC(C)(C)c4cc(F)cc5c4OCC5)C(F)(F)F)cc3c2)cc1 (stereo not shown) [2-[5-(4-Dimethylaminophenyl)-1H-indol-2-ylmethyl]-1,1,1-trifluoro-4-(5-fluoro-2,3-dihydrobenzofuran-7-yl)-4-methylpentan-2-ol]",potent agonists
21,"CC(C)(CC(O)(Cc1cc2cnccc2[nH]1)C(F)(F)F)c1cc(S(C)(=O)=O)cc2c1OCC2 (stereo not shown) [1,1,1-Trifluoro4-(5-methanesulfonyl-2,3-dihydrobenzofuran-7-yl)-4-methyl-2-(1H-pyrrolo[3,2-c]pyridin-2-ylmethyl)pentan-2-ol]",potent agonists
22,COc1ccc(C)cc1C(C)(C)CC(O)(Cc1cc2nc(N3CCCC3)ncc2[nH]1)C(F)(F)F (stereo not shown),potent agonists
